The results in this text go back to ChEMBL document CHEMBL2010727, “A novel series of benzimidazole NR2B-selective NMDA receptor antagonists” (Bioorg Med Chem Lett, 2012).

The source made the active and inactive calls. No cut-off for these calls is given here.

Data set [1] is filed under the species Homo sapiens. The experiment in a line: Selectivity ratio of human NR2B receptor over human ERG.
The target in data set [2] is T1, Glutamate NMDA receptor; GRIN1/GRIN2B (Homo sapiens) (UniProt Q05586+Q13224). The experiment in a line: Reversible inhibition of human NR1-NR2B receptor expressed in HEK293T cells assessed as inhibition of glycine-induced response by whole cell voltage clamp electrophysiology assay. It is filed as cell-based. The settings on record: HEK-293T.
The nature of data set [3]: Inhibition of alpha1 adrenergic receptor at 10 uM.
Data set [4] addresses T1, Glutamate NMDA receptor; GRIN1/GRIN2B (Homo sapiens). Put plainly: Reversible inhibition of human NR1-NR2B receptor expressed in HEK293T cells assessed as inhibition of glutamate-induced response by whole cell voltage clamp electrophysiology assay. The settings on record: HEK-293T. It is filed as cell-based.
Data set [5] has as its target Glutamate receptor ionotropic, NMDA 2B (Homo sapiens, UniProt Q05586+Q13224). Put plainly: Displacement of [3H]-Ro256981 from human NR2B receptor.
Data set [6] can be described thus: Antagonist activity at human NR1-NR2A receptor by FLIPR-based Ca2+ flux assay. In general terms: A change in cytosolic calcium serves as a functional read-out for many receptors and channels.
Data set [7] has as its target Cytochrome P450 2C19 (Homo sapiens, UniProt P33261). The experiment in a line: Inhibition of CYP2C19. It is filed as ADME.
For data set [8], the target named is Cytochrome P450 3A4 (Homo sapiens, UniProt P08684). The experiment in a line: Inhibition of CYP3A4. The class given is ADME.
For data set [9], the target named is Cytochrome P450 2C9 (Homo sapiens, UniProt P11712). Put plainly: Inhibition of CYP2C9. The class given is ADME.
Data set [10] addresses Cytochrome P450 2D6 (Homo sapiens, UniProt P10635). Put plainly: Inhibition of CYP2D6. The class given is ADME.
The test system of data set [11] is Liver microsomes. Put plainly: Intrinsic clearance in human liver microsomes. The class given is ADME, Microsome. (Liver microsomes are vesicles of endoplasmic reticulum, rich in cytochrome P450 enzymes.)
The target of data set [12] is T2, Cytochrome P450 1A2 (Homo sapiens, UniProt P05177).
T2 sequence (P05177 whole entry): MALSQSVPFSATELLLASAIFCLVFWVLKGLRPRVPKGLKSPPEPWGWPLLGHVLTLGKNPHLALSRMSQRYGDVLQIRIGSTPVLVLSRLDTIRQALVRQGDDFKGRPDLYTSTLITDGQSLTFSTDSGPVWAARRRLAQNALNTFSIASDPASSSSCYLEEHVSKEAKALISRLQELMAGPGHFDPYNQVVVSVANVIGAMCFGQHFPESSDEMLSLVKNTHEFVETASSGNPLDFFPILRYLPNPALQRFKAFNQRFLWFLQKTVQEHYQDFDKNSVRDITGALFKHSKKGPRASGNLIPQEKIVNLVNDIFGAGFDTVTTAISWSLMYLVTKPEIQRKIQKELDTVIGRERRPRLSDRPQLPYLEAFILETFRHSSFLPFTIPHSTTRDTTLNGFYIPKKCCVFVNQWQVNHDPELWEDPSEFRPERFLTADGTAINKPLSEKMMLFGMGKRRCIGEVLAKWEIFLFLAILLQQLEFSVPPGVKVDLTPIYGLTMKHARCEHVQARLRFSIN
Put plainly: Inhibition of CYP1A2. It is filed as ADME.

Data set [13] can be described thus: Tmax in rat at 3 mg/kg, sc. The class given is ADME, organism-based. Details: dose 3 mg/kg, route subcutaneous. The settings on record: in vivo.
A short description of data set [14]: Terminal half life in rat at 3 mg/kg, sc. It is filed as ADME, organism-based. The settings on record: in vivo, read-out: beta t1/2 (converted). Details: dose 3 mg/kg, route subcutaneous.
Data set [15] can be described thus: Ratio of drug level in brain to blood in rat at 3 mg/kg, sc. The class given is ADME, organism-based. Details: dose 3 mg/kg, route subcutaneous.
Data set [16] deals with Blood. Put plainly: Drug uptake in rat blood at 3 mg/kg, sc. The class given is ADME, organism-based. The settings on record: in vivo, read-out: Drug uptake. Details: dose 3 mg/kg, route subcutaneous.

Sequence of Cytochrome P450 2C9 (P11712 whole entry): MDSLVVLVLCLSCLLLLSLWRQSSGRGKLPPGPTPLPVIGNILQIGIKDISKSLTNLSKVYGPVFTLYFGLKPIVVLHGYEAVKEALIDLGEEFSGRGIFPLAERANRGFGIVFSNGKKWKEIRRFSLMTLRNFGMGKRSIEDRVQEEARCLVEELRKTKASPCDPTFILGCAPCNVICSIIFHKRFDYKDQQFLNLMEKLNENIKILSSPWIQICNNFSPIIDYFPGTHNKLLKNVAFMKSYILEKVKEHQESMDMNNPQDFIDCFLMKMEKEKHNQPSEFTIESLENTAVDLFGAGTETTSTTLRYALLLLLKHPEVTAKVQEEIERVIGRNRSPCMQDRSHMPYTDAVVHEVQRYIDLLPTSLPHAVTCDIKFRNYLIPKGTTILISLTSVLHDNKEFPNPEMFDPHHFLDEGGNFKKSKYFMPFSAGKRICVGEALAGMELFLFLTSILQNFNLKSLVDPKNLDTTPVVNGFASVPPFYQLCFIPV
Sequence of Cytochrome P450 2D6 (P10635 whole entry): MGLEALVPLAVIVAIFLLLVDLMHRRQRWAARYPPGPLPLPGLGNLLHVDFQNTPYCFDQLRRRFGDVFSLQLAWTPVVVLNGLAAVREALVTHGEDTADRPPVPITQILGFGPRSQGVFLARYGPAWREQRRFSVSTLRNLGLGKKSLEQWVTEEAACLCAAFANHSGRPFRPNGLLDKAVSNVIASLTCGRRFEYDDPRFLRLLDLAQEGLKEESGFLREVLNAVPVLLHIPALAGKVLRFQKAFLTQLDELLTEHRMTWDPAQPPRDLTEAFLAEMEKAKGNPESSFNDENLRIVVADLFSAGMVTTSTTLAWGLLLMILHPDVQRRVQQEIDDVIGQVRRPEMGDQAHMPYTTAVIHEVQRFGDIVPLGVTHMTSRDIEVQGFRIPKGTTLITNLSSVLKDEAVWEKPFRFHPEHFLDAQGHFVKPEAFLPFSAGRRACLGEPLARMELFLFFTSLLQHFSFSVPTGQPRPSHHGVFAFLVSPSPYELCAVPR
Sequence of Cytochrome P450 3A4 (P08684 whole entry): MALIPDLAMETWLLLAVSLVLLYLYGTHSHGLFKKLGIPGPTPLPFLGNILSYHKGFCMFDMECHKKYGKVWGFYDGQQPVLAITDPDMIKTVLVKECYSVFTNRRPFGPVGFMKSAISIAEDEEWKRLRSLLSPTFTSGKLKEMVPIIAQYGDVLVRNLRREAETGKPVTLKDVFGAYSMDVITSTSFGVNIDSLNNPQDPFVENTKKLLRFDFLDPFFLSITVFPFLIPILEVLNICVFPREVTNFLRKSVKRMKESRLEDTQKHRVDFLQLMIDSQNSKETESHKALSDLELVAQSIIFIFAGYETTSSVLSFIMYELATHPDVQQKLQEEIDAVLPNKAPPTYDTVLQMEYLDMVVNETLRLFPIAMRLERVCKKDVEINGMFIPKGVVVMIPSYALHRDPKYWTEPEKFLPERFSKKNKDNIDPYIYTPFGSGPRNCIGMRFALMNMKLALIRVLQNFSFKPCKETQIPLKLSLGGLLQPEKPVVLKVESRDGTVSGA
Sequence of Cytochrome P450 2C19 (P33261 whole entry): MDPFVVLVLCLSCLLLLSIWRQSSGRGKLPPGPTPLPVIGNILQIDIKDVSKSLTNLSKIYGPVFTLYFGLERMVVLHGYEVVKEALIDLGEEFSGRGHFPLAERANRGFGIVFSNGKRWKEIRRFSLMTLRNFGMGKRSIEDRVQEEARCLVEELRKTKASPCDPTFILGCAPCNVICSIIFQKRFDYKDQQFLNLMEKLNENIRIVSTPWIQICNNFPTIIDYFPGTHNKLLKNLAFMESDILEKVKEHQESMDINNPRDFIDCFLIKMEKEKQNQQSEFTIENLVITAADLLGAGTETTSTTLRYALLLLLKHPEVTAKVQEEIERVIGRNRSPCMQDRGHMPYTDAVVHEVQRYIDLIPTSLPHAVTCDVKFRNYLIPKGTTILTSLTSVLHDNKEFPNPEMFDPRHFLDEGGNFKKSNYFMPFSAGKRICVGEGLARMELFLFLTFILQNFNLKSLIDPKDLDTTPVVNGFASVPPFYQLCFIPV

Regarding `Fc1ccc2[nH]c(-c3ccccc3)nc2c1CN1CCCCC1`, the Selectivity ratio in [1] was > 100. Further, the inhibition result in data set [2] and in [4] was “Active” throughout. In addition, in [3], the inhibition is < 50%.

As for `Oc1ccc2[nH]c(-c3ccccc3)nc2c1CN1CCC(c2ccccc2)CC1`, the Selectivity ratio in data set [1] is > 100. For the same molecule, the IC50 was 0.0794 µM in data set [5] and > 50.1 µM in data set [6].

Regarding `Oc1ccc2[nH]c(-c3cccc(F)c3F)nc2c1CNCc1cccs1`, in [3], the inhibition is < 50%.

Take `CCCNCc1c(O)ccc2[nH]c(-c3ccccc3)nc12`: the inhibition in data set [3] was < 50%.

Regarding `Fc1ccc2[nH]c(-c3ccccc3)nc2c1CN1CCCCCC1`, in [1], the Selectivity ratio was > 100. In addition, the inhibition entry in [2] and in [4] was “Active” each time. In addition, in [3], the inhibition is < 50%. The concentration for half-maximal inhibition (IC50) in [5] was 0.2 µM; in data set [6], > 50.1 µM.

Take `Oc1ccc2nc(-c3cccc(F)c3F)[nH]c2c1CN1CCCC1`: the half-inhibitory concentration (IC50) in data set [5] was 0.0126 µM; in data set [6], > 50.1 µM.

Take `Oc1ccc2[nH]c(-c3cccc(F)c3F)nc2c1CN1CCCC1`: in data set [1], the Selectivity ratio was > 100. For the same molecule, in [3], the inhibition was < 50%.

In the case of `Fc1ccc2[nH]c(-c3ccccc3)nc2c1CN1CCOCC1`, the Selectivity ratio in data set [1] was > 100. The inhibition result in data set [2] and in data set [4] was “Active” in each case. Moreover, the inhibition in data set [3] was < 50%.

On to `CC(C)NCc1c(F)ccc2[nH]c(-c3ccccc3)nc12`, for which the Selectivity ratio in data set [1] was > 100. Further, the inhibition entry in data set [2] and in [4] was “Active” in each case. Moreover, in data set [3], the inhibition is < 50%.

Take `Fc1ccc2nc(-c3ccccc3)[nH]c2c1CN1CCOCC1`: the half-maximal inhibitory concentration (IC50) in data set [5] is 2.51 µM; in [6] it was > 50.1 µM.

Take `CN1CCN(Cc2c(O)ccc3[nH]c(-c4ccccc4)nc23)CC1`: the Selectivity ratio in data set [1] is > 100. Besides, the inhibition in [3] was < 50%.

With `c1ccc(-c2nc3cccc(CN4CCCCC4)c3[nH]2)cc1`, the IC50 in data set [7] was > 50 µM; in [8], > 50 µM; in data set [9] it was > 50 µM; in [10] it was 5 µM; in [12], 7 µM. This molecule also registered a CLH in data set [11] of 3.6 mL/min/g.

Take `c1ccc(-c2nc3c(CN4CCCCC4)cccc3[nH]2)cc1`: the inhibition entry in [2] and in data set [4] was “Active” each time. For the same molecule, the inhibition in [3] was < 50%.

`Fc1ccc2[nH]c(-c3ccccc3)nc2c1CN1CCCC1`: the inhibition entry in data set [2] and in data set [4] was “Active” each time. Besides, the inhibition in data set [3] was < 50%.

For `CC(C)NCc1c(F)ccc2nc(-c3ccccc3)[nH]c12`, the IC50 in data set [5] is 0.794 µM; in data set [6] it was > 50.1 µM.

For the molecule `Oc1ccc2nc(-c3ccccc3)[nH]c2c1CN1CCCC1`, the IC50 in [5] is 0.00794 µM; in data set [6], > 50.1 µM.

For the molecule `CCC1CCCCN1Cc1c(F)ccc2[nH]c(-c3ccccc3)nc12` (stereo not drawn), in [1], the Selectivity ratio was > 100. Moreover, the inhibition result in data set [2] and in data set [4] was “Active” throughout. The inhibition in data set [3] was < 50%.

As for `CCC1CCCCN1Cc1c(F)ccc2nc(-c3ccccc3)[nH]c12` (stereo not drawn), the IC50 in data set [5] is 1 µM; in data set [6], > 50.1 µM.

In the case of `Oc1ccc2[nH]c(-c3ccccc3)nc2c1CN1CCOCC1`, the inhibition in data set [3] was < 50%.

In the case of `Oc1ccc2[nH]c(-c3ccccc3)nc2c1CN1CCCCCC1`, the Selectivity ratio in [1] was > 100. Moreover, in [3], the inhibition is < 50%. The IC50 in data set [5] is 0.00794 µM; in data set [6], > 50.1 µM.

For the molecule `Oc1ccc2nc(-c3ccccc3)[nH]c2c1CNC1CCCC1`, the concentration for half-maximal inhibition (IC50) in data set [5] was 0.0316 µM; in data set [6], > 50.1 µM.

Regarding `Oc1ccc2[nH]c(-c3ccccc3)nc2c1CNC1CCCC1`, in [1], the Selectivity ratio is > 100. The inhibition in data set [3] is < 50%.

Turning to `Oc1ccc2[nH]c(-c3ccccc3)nc2c1CN1CCCCC1`, the 50% inhibitory concentration (IC50) in [7] was > 30 µM; in [8] it was > 30 µM; in data set [9], > 30 µM; in data set [10], 6 µM; in [12], 3 µM. Further, the inhibition in data set [3] was < 50%. Further, the Tmax in [13] stood at 48 min. Further, the half-life in data set [14] is 66 min. Moreover, the Kp in [15] is 2.7. In data set [11], this molecule displayed a CLH of 3.9 mL/min/g. Besides, the concentration in data set [16] came to 600 nM.

Take `O=C(c1cccc2nc(-c3ccccc3)[nH]c12)N1CCCCC1`: the concentration for half-maximal inhibition (IC50) in data set [5] was > 10 µM; in data set [6], > 50.1 µM.

`Fc1ccc2nc(-c3ccccc3)[nH]c2c1CN1CCCCC1`: the IC50 in [5] was 0.0794 µM; in data set [6], > 50.1 µM.

For `CN(C)Cc1c(O)ccc2[nH]c(-c3ccccc3)nc12`, the inhibition in data set [3] is < 50%.

For the molecule `Oc1ccc2[nH]c(Cc3ccccc3)nc2c1CN1CCCC1`, the inhibition in data set [3] is < 50%.

`Oc1ccc2[nH]c(-c3cccc(F)c3F)nc2c1CNCc1ccco1`: the Selectivity ratio in data set [1] was > 100. Besides, in data set [3], the inhibition is < 50%.

`O=C(c1cccc2[nH]c(-c3ccccc3)nc12)N1CCCCC1`: the Selectivity ratio in data set [1] was > 100. Moreover, the inhibition result in data set [2] and in data set [4] was “Active” in each case. Further, the inhibition in data set [3] is < 50%.

`Fc1ccc2nc(-c3ccccc3)[nH]c2c1CN1CCCC1`: the 50% inhibitory concentration (IC50) was > 30 µM in data set [7]; > 30 µM in data set [8]; > 30 µM in data set [9]; 5 µM in data set [10]; 16 µM in data set [12]. The CLH in [11] is < 0.5 mL/min/g.

Consider `Oc1ccc2[nH]c(-c3ccccc3)nc2c1CN1CCCC1`, for which the Selectivity ratio in data set [1] is > 100. Besides, the inhibition in data set [3] was < 50%.

Regarding `Oc1ccc2nc(-c3cccc(F)c3F)[nH]c2c1CNCc1ccco1`, the concentration for half-maximal inhibition (IC50) was 0.794 µM in data set [5] and > 50.1 µM in data set [6].

As for `Oc1ccc2[nH]cnc2c1CN1CCCCC1`, the inhibition in [3] was < 50%.

For the molecule `Cc1ccc(-c2nc3c(CNC4CC4)c(O)ccc3[nH]2)cc1`, in data set [1], the Selectivity ratio is > 100. Moreover, in data set [3], the inhibition was < 50%. Moreover, the IC50 is 0.0398 µM in data set [5] and > 50.1 µM in data set [6].

On to `CN1CCN(Cc2c(O)ccc3nc(-c4ccccc4)[nH]c23)CC1`, for which the results for the IC50 in data set [5] and in [6] were 0.398 µM and > 50.1 µM, respectively.

For the molecule `Cc1cccc2[nH]c(-c3ccccc3)nc12`, the Selectivity ratio in data set [1] is > 100. In addition, the inhibition entry in [2] and in data set [4] was “Active” throughout. The inhibition in data set [3] was < 50%. The results for the IC50 in data set [5] and in data set [6] were > 10 µM and > 50.1 µM, respectively.

By inhibition is commonly meant how much of the control response was suppressed. As a reminder, the IC50 is the point on the concentration scale where inhibition reaches its midpoint. Read a high IC50 as weaker potency. One may read the Tmax as the time at which the peak concentration occurs. The Kp is the ratio of the level in a tissue or fluid to that in plasma or blood.
